Assay results: patent publication US20240376094A2, “SELECTIVE BCL-XL PROTAC COMPOUNDS AND METHODS OF USE” (Les Laboratoires Servier, priority 2021, published 2024)

Legend:
Format in all cases: cell-based
[1] = molecular target: T1, Bcl-xL (Homo sapiens, UniProt Q07817); assay: HCT116 Bcl-xL degradation, capillary-based immunoassay (WES); conditions: for DC50: HCT116, 24 h, 9-point serial dilution; for remaining activity at 0.01 µM / remaining activity at 0.1 µM: HCT-116, 24 h, % of untreated cells; for remaining activity at 0.01 µM: HCT116, 10 nM; for remaining activity at 0.1 µM: HCT116, 100 nM
T1 construct: Measured levels of Bcl-xL protein of HCT116 cells treated with the tested compounds; host or cells: HCT116
T1 sequence (Q07817 whole entry): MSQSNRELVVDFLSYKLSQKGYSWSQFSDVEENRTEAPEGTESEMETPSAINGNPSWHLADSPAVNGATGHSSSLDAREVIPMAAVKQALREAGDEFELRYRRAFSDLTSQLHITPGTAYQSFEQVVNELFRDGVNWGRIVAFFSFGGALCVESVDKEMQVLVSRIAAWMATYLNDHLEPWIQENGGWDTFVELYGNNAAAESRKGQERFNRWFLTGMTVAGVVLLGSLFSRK
Outline: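 Bcl-xL protein level by capillary WES immunoassay in HCT116 lysates, as % of untreated after cofilin normalization. Compound exposure was 24 h at 10 and 100 nM and/or a 9-point series, in quadruplicate. Four-parameter fitting gave the DC50.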

[2] = system: MOLT-4 cells; assay: MOLT-4 cell viability, MTT assay; conditions: Homo sapiens, MOLT-4, 48 h
Outline: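 MOLT-4 cells in RPMI 1640 with 10% FBS were exposed to compounds for 48 h at 9 concentrations (3.16-fold dilutions, triplicates). After 4 h with MTT and overnight SDS/HCl solubilisation, absorbance was read at 540 nm. IC50 came from four-parameter fits versus control, as the mean of ≥2 independent experiments.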

[3] = system: COR-L105; assay: CellTiter-Glo proliferation assay, COR-L105; conditions: Homo sapiens, COR-L105, 120 h, COR-L105, 5 days; for Emax: read-out: COR-L105 Span (max)
Method: (§1) The BCL-xL degrader compounds were tested against two endogenous cancer cell lines: • COR-L105: ECACC No. 92031918 cultured in RPMI-1640+10% FBS • NCI-H1650: (ATCC No. CRL-5883 cultured in RPMI-1640+10% FBS
(§2) The ability of the BCL-xL degrader low molecular weight compounds to inhibit cell proliferation and survival was assessed using the Promega CellTiter-Glo® proliferation assay.
(§3) Cell lines were cultured in media that is optimal for their growth at 5% CO2, 37° C. in a tissue culture incubator. Prior to seeding for the proliferation assay, the cells were split at least 2 days before the assay to ensure optimal growth density. On the day of seeding, adherent cells were lifted off tissue culture flasks using 0.25% trypsin. Cell viability and cell density were determined using a cell counter (Vi-Cell XR Cell Viability Analyzer, Beckman Coulter). Cells with higher than 85% viability were seeded for the assay.
(§4) The COR-105 cell line was seeded in white, clear bottom 384-well TC treated plates (Corning cat. #3765). Cells were seeded at a density of 1,000 cells per well in 45 μL of standard growth media. Plates were incubated at 5% CO2, 37° C. overnight in a tissue culture incubator. The NCI-H1650 cell line was seeded in black, clear round bottom 384-well ultra-low attachment spheroid microplates (Corning cat. #3830). Cells were seeded at a density of 3,000 cells per well in 45 uL of standard growth media. Plates were spun in a centrifuge for 5 minutes and 1,000 RPM. Plates were incubated at 5% CO2, 37° C. for 72 hours in a tissue culture incubator.
(§5) On the day of dosing, BCL-xL degrader low molecular weight compounds were prepared at 1 OX in standard growth media. The prepared drug treatments were then added to the cells resulting in final concentrations of 0.508 nM-10 μM and a final volume of 50 μL per well. Each drug concentration was tested in quadruplets. Plates were incubated at 5% CO2, 37° C. for 5 days in a tissue culture incubator.
(§6) For COR-L105 plates, cell viability was assessed through the addition of 25 μL of CellTiter Glo® (Promega, cat #G7573), a reagent which lyses cells and measures total adenosine triphosphate (ATP) content. Plates were incubated at room temperature for 10 minutes to stabilize luminescent signals prior to reading with a luminescence reader (EnVision Multilabel Plate Reader, PerkinElmer). For NCI-H1650 plates, cell viability was assessed through the addition of 40 μL of CellTiter Glo® 3D Cell Viability Assay substrate (Promega, cat #G9681), a reagent which lyses cells and measures total adenosine triphosphate (ATP) content. Wells were mixed thoroughly and plates were incubated at room temperature for 30 minutes to stabilize luminescent signals prior to reading using a luminescence reader (EnVision Multilabel Plate Reader, PerkinElmer).
(§7) To evaluate the effect of the drug treatments, luminescent counts from wells containing untreated cells (100% viability) were used to normalize treated samples. A variable slope model was applied to fit a nonlinear regression curve to the data in GraphPad PRISM version 7.02 software. IC50 and Amax values were extrapolated from the resultant curves. The concentrations of treatment required to inhibit 50% of cell growth or survival (IC50) were calculated with representative IC50 values of the cell lines tested summarized in Table 11.

[4] = system: NCI-H1650; assay: CellTiter-Glo 3D proliferation assay, NCI-H1650 spheroids; conditions: Homo sapiens, NCI-H1650, 120 h, 5 days; for Emax: read-out: NCI-H1650 Span (Amax)
Method: as §1, §2, §3, §4, §5, §6, §7

[5] = molecular target: T2, HiBiT-tagged BCL-xL (Homo sapiens, UniProt Q07817); assay: NCI-H1650 BCL-xL protein levels, Nano-Glo HiBiT Lytic Detection; conditions: NCI-H1650 expressing HiBiT-tagged BCL-xL, overnight incubation, read-out: Bcl-xl HIBIT NCIH1650 DC50
T2 construct: expressed in transfected cells; host or cells: NCI-H1650 (ATCC No. CRL-5883), engineered HiBiT cell line
T2 sequence (Q07817 whole entry): as above
Outline: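 HiBiT luminescence after cell lysis with LgBiT/furimazine reagent reported BCL-xL levels, expressed relative to untreated wells and fitted with a four-parameter logistic equation. Engineered NCI-H1650 cells were exposed overnight at 37° C to compound at final 0.508 nM-10 μM (10 points, triplicate plates).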

[6] = system: EBC-1 lung cancer cell line; assay: EBC-1 cell proliferation, CellTiter-Glo assay; conditions: Homo sapiens, 120 h; Ebc-1 cell viability, CTG assay, 5 days of treatment; read-out: CTG 5 day Ebc1 GI50
Outline: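 CellTiter-Glo read-out after 5-day compound treatment, normalised to untreated cells, with GI50 derived by four-parameter logistic regression. Ten concentrations spanning 0.508 nM–10 μM were added to 1000 EBC-1 cells per well the day after seeding. Assays required at least one cell doubling versus Day 0.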

SMILES	DC50 [1] [nM]	remaining activity at 0.01 µM [1] [%]	remaining activity at 0.1 µM [1] [%]	IC50 [2] [nM]	IC50 [4] [nM]	DC50 [5] [nM]	GI50 [6] [nM]	IC50 [3] [nM]	Emax [3] [%]	Emax [4] [%]
Cc1ncsc1-c1ccc(CNC(=O)C2C[C@@H](O)CN2C(=O)C(NC(=O)CCCCCC(=O)N2CCN(CCOC34CC5(C)CC(C)(CC(Cn6ncc(-c7ccc(N8CCCc9c8nnc(Nc8nc%10ccccc%10s8)c9C)nc7C(=O)O)c6C)(C5)C3)C4)CC2)C(C)(C)C)cc1 (stereo in doubt) [Example 22, 6-[3-(1,3-benzothiazol-2-ylamino)-4-methyl-6,7-dihydro-5H-pyrido[2,3-c]pyridazin-8-yl]-3-[1-[[3-[2-[4-[7-[[(1S)-1-[(2S,4R)-4-hydroxy-2-[[4-(4-methylthiazol-5-yl)phenyl]methylcarbamoyl]pyrrolidine-1-carbonyl]-2,2-dimethyl-propyl]amino]-7-oxo-heptanoyl]piperazin-1-yl]ethoxy]-5,7-dimethyl-1-adamantyl]methyl]-5-methyl-pyrazol-4-yl]pyridine-2-carboxylic acid]	> 316	68	54	4.7	72.8	–	–	275	104	92.6
Cc1ncsc1-c1ccc(CNC(=O)[C@@H]2CC(O)CN2C(=O)C(NC(=O)CCCCC(=O)N2CCN(CCOC34CC5(C)CC(C)(CC(Cn6ncc(-c7ccc(N8CCCc9c8nnc(Nc8nc%10ccccc%10s8)c9C)nc7C(=O)O)c6C)(C5)C3)C4)CC2)C(C)(C)C)cc1 (stereo in doubt) [Example 23, 6-[3-(1,3-benzothiazol-2-ylamino)-4-methyl-6,7-dihydro-5H-pyrido[2,3-c]pyridazin-8-yl]-3-[1-[[3-[2-[4-[6-[[(1S)-1-[(2S,4R)-4-hydroxy-2-[[4-(4-methylthiazol-5-yl)phenyl]methylcarbamoyl]pyrrolidine-1-carbonyl]-2,2-dimethyl-propyl]amino]-6-oxo-hexanoyl]piperazin-1-yl]ethoxy]-5,7-dimethyl-1-adamantyl]methyl]-5-methyl-pyrazol-4-yl]pyridine-2-carboxylic acid]	–	82	67	10.5	35.7	–	–	183	100	71.4
Cc1c(Nc2nc3ccccc3s2)nnc2c1CCCN2c1nc(C(=O)O)c(CCCOc2ccc(C#CCN3CCN(C(=O)CCCCCCC(=O)NCCOCCNC(=O)COc4cccc5c4C(=O)N(C4CCC(=O)NC4=O)C5=O)CC3)cc2F)s1 (centres unmarked) [Example 25, 2-[3-(1,3-benzothiazol-2-ylamino)-4-methyl-6,7-dihydro-5H-pyrido[2,3-c]pyridazin-8-yl]-5-[3-[4-[3-[4-[8-[2-[2-[[2-[2-(2,6-dioxo-3-piperidyl)-1,3-dioxo-isoindolin-4-yl]oxyacetyl]amino]ethoxy]ethylamino]-8-oxo-octanoyl]piperazin-1-yl]prop-1-ynyl]-2-fluoro-phenoxy]propyl]thiazole-4-carboxylic acid]	> 316	59	55	1.09	38.8	–	–	174	87.4	74
Cc1cc(N(CCCCCn2cc(CCCCCCCCC(=O)N[C@H](C(=O)N3C[C@H](O)C[C@H]3C(=O)NCc3ccc(-c4scnc4C)cc3)C(C)(C)C)nn2)c2ccc(-c3cnn(CC45CC6(C)CC(C)(C4)CC(OCCN(C)C)(C6)C5)c3C)c(C(=O)O)n2)nnc1Nc1nc2ccccc2s1 [Example 152, 6-[[6-(1,3-benzothiazol-2-ylamino)-5-methyl-pyridazin-3-yl]-[5-[4-[9-[[(1S)-1-[(2S,4R)-4-hydroxy-2-[[4-(4-methylthiazol-5-yl)phenyl]methylcarbamoyl]pyrrolidine-1-carbonyl]-2,2-dimethyl-propyl]amino]-9-oxo-nonyl]triazol-1-yl]pentyl]amino]-3-[1-[[3-[2-(dimethylamino)ethoxy]-5,7-dimethyl-1-adamantyl]methyl]-5-methyl-pyrazol-4-yl]pyridine-2-carboxylic acid]	11.4	–	–	82.1	–	> 1670	121	–	–	–

The next lines start with results.

DC50 [1] [nM]	remaining activity at 0.01 µM [1] [%]	remaining activity at 0.1 µM [1] [%]	IC50 [2] [nM]	IC50 [4] [nM]	DC50 [5] [nM]	GI50 [6] [nM]	SMILES	IC50 [3] [nM]	Emax [3] [%]	Emax [4] [%]
> 316	–	–	16.2	–	> 1670	4	Cc1ncsc1-c1ccc(CNC(=O)[C@@H]2C[C@@H](O)CN2C(=O)[C@@H](NC(=O)C2(F)CC2)C(C)(C)C)c(OCCCCCCN(C)CCOC23CC4(C)CC(C)(CC(Cn5ncc(-c6ccc(N7CCCc8c7nnc(Nc7nc9ccccc9s7)c8C)nc6C(=O)O)c5C)(C4)C2)C3)c1 [Example 137, 6-[3-(1,3-benzothiazol-2-ylamino)-4-methyl-6,7-dihydro-5H-pyrido[2,3-c]pyridazin-8-yl]-3-[1-[[3-[2-[6-[2-[[[(2S,4R)-1-[(2S)-2-[(1-fluorocyclopropanecarbonyl)amino]-3,3-dimethyl-butanoyl]-4-hydroxy-pyrrolidine-2-carbonyl]amino]methyl]-5-(4-methylthiazol-5-yl)phenoxy]hexyl-methyl-amino]ethoxy]-5,7-dimethyl-1-adamantyl]methyl]-5-methyl-pyrazol-4-yl]pyridine-2-carboxylic acid]	–	–	–
0.397	–	–	3.52	–	3	7	Cc1ncsc1-c1ccc(CNC(=O)[C@@H]2C[C@@H](O)CN2C(=O)[C@@H](NC(=O)C2(F)CC2)C(C)(C)C)c(OCCCCCCCCCCCCN(C)CCOC23CC4(C)CC(C)(CC(Cn5ncc(-c6ccc(N7CCCc8c7nnc(Nc7nc9ccccc9s7)c8C)nc6C(=O)O)c5C)(C4)C2)C3)c1 [Example 139, 6-[3-(1,3-benzothiazol-2-ylamino)-4-methyl-6,7-dihydro-5H-pyrido[2,3-c]pyridazin-8-yl]-3-[1-[[3-[2-[12-[2-[[[(2S,4R)-1-[(2S)-2-[(1-fluorocyclopropanecarbonyl)amino]-3,3-dimethyl-butanoyl]-4-hydroxy-pyrrolidine-2-carbonyl]amino]methyl]-5-(4-methylthiazol-5-yl)phenoxy]dodecyl-methyl-amino]ethoxy]-5,7-dimethyl-1-adamantyl]methyl]-5-methyl-pyrazol-4-yl]pyridine-2-carboxylic acid]	–	–	–
